The source of these data is the supplement of paper PMC10307832.

What all share (assay): relative viability (nuclei count vs DMSO), 5 days (fraction); higher = more cells survive
Compound in the test “Tozasertib + Luminespib”: Cc1cc(Nc2cc(N3CCN(C)CC3)nc(Sc3ccc(NC(=O)C4CC4)cc3)n2)n[nH]1 [Tozasertib] + CCNC(=O)c1noc(-c2cc(C(C)C)c(O)cc2O)c1-c1ccc(CN2CCOCC2)cc1 [Luminespib] (partner 0.01 µM)
The method, boiled down:
(§1)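 One day after seeding in 1536-well plates, lung cancer cell lines were dosed by pin tool. Dosing was either single-drug or a fixed anchor-drug dose plus five library-drug doses (not always all listed) in √10 steps. After 5 days, nuclei were stained in one fix-and-stain step and counted on 4× images, and relative viability is the nuclei count of treated wells over that of vehicle wells, given as the median of duplicate plates.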

Compound in the test “Tozasertib + Alpelisib”: Cc1cc(Nc2cc(N3CCN(C)CC3)nc(Sc3ccc(NC(=O)C4CC4)cc3)n2)n[nH]1 [Tozasertib] + Cc1nc(NC(=O)N2CCC[C@H]2C(N)=O)sc1-c1ccnc(C(C)(C)C(F)(F)F)c1 [Alpelisib] (partner 2 µM)
The method, boiled down:
as §1

Compound in the test “Tozasertib + AZD7762”: Cc1cc(Nc2cc(N3CCN(C)CC3)nc(Sc3ccc(NC(=O)C4CC4)cc3)n2)n[nH]1 [Tozasertib] + NC(=O)Nc1cc(-c2cccc(F)c2)sc1C(=O)N[C@H]1CCCNC1 [AZD7762] (partner 0.2 µM)
Put shortly: as §1

Compound in the test “Tozasertib + Pemetrexed”: Cc1cc(Nc2cc(N3CCN(C)CC3)nc(Sc3ccc(NC(=O)C4CC4)cc3)n2)n[nH]1 [Tozasertib] + Nc1nc2[nH]cc(CCc3ccc(C(=O)N[C@@H](CCC(=O)O)C(=O)O)cc3)c2c(=O)[nH]1 [Pemetrexed] (partner 0.2 µM)
The method, boiled down:
as §1

Compound in the test “Tozasertib + Decitabine”: Cc1cc(Nc2cc(N3CCN(C)CC3)nc(Sc3ccc(NC(=O)C4CC4)cc3)n2)n[nH]1 [Tozasertib] + Nc1ncn([C@H]2C[C@H](O)[C@@H](CO)O2)c(=O)n1 [Decitabine] (partner 2 µM)
The method, boiled down: as §1

For PC-3 [JPC-3], the relative viability turned out to be 0.625 with Tozasertib + Luminespib (first compound 0.004 µM); 0.699 with Tozasertib + Luminespib (first compound 0.01265 µM); 0.814 in the test with Tozasertib + Luminespib (first compound 0.04 µM); 0.71 with Tozasertib + Luminespib (first compound 0.1265 µM); 0.835 with Tozasertib + Alpelisib (first compound 0.004 µM); 1.03 with Tozasertib + Alpelisib (first compound 0.01265 µM). For the same cell line, the relative viability was 1.03 with Tozasertib + Alpelisib (first compound 0.04 µM); 0.959 in the test with Tozasertib + Alpelisib (first compound 0.1265 µM); 0.789 in the test with Tozasertib + AZD7762 (first compound 0.004 µM); 0.734 with Tozasertib + AZD7762 (first compound 0.01265 µM); 0.774 with Tozasertib + AZD7762 (first compound 0.04 µM); 0.684 with Tozasertib + AZD7762 (first compound 0.1265 µM). In addition, the relative viability with Tozasertib + Pemetrexed (first compound 0.004 µM) was 1.08; with Tozasertib + Pemetrexed (first compound 0.01265 µM) it was 1.01; with Tozasertib + Pemetrexed (first compound 0.04 µM), 1.21; with Tozasertib + Pemetrexed (first compound 0.1265 µM), 0.919; with Tozasertib + Decitabine (first compound 0.004 µM), 0.808; in the test with Tozasertib + Decitabine (first compound 0.01265 µM) it was 0.889. Moreover, the relative viability in the test with Tozasertib + Decitabine (first compound 0.04 µM) was found to be 0.828; with Tozasertib + Decitabine (first compound 0.1265 µM), 0.793.

As to PC-14, the relative viability with Tozasertib + Luminespib (first compound 0.01265 µM) worked out at 0.114; in the test with Tozasertib + Luminespib (first compound 0.04 µM) it was 0.179; with Tozasertib + Luminespib (first compound 0.1265 µM) it was 0.129; with Tozasertib + Alpelisib (first compound 0.004 µM), 0.982; in the test with Tozasertib + Alpelisib (first compound 0.01265 µM), 0.95; with Tozasertib + Alpelisib (first compound 0.04 µM), 0.954. The relative viability is 0.956 with Tozasertib + Alpelisib (first compound 0.1265 µM); 0.31 with Tozasertib + AZD7762 (first compound 0.004 µM); 0.236 with Tozasertib + AZD7762 (first compound 0.01265 µM); 0.336 in the test with Tozasertib + AZD7762 (first compound 0.04 µM); 0.213 with Tozasertib + AZD7762 (first compound 0.1265 µM); 0.145 in the test with Tozasertib + Pemetrexed (first compound 0.01265 µM). Moreover, the relative viability turned out to be 0.143 in the test with Tozasertib + Pemetrexed (first compound 0.04 µM); 0.125 in the test with Tozasertib + Pemetrexed (first compound 0.1265 µM); 0.21 in the test with Tozasertib + Decitabine (first compound 0.01265 µM); 0.184 with Tozasertib + Decitabine (first compound 0.04 µM); 0.128 in the test with Tozasertib + Decitabine (first compound 0.1265 µM).

On to RERF-LC-KJ, for which the relative viability with Tozasertib + Luminespib (first compound 0.004 µM) is 1.3; with Tozasertib + Luminespib (first compound 0.01265 µM) it was 1.21; with Tozasertib + Luminespib (first compound 0.04 µM), 1.2; with Tozasertib + Luminespib (first compound 0.1265 µM) it was 0.983; in the test with Tozasertib + Alpelisib (first compound 0.004 µM) it was 0.897; with Tozasertib + Alpelisib (first compound 0.01265 µM) it was 0.761. In addition, the relative viability in the test with Tozasertib + Alpelisib (first compound 0.04 µM) is 0.914; with Tozasertib + Alpelisib (first compound 0.1265 µM) it was 0.599; in the test with Tozasertib + AZD7762 (first compound 0.004 µM), 1.08; with Tozasertib + AZD7762 (first compound 0.04 µM) it was 1.06; in the test with Tozasertib + AZD7762 (first compound 0.1265 µM), 0.371; with Tozasertib + Pemetrexed (first compound 0.004 µM), 0.465. Moreover, the relative viability with Tozasertib + Pemetrexed (first compound 0.01265 µM) came to 0.442; with Tozasertib + Pemetrexed (first compound 0.04 µM) it was 0.486; with Tozasertib + Pemetrexed (first compound 0.1265 µM), 0.361; in the test with Tozasertib + Decitabine (first compound 0.004 µM) it was 0.532; with Tozasertib + Decitabine (first compound 0.01265 µM), 0.592; with Tozasertib + Decitabine (first compound 0.04 µM), 0.645. In the test with Tozasertib + Decitabine (first compound 0.1265 µM), the relative viability is 0.508.
